ChEMBL document CHEMBL1201862, “PubChem BioAssay data set” (2004)
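Step 1: Grow cells in 96-well plates. Step 2: Expose to compound for 48 hours at 5 concentrations. Step 3: Interpolate endpoints linearly; if unreached, use highest concentration. GI50 is the concentration that inhibits growth by half.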 Active and inactive are the calls of the source. Rule as the data show it: active = GI50 up to about 1.1 µM and inactive = higher.

Legend:
Test in all cases: inhibition of tumour cell growth, NCI panel, 48 h
[1] = system: NCI-H226
[2] = system: KM12
[3] = system: CCRF-CEM
[4] = system: SW-620
[5] = system: UACC-62
[6] = system: CAKI-1
[7] = system: 786-0
[8] = system: RXF 393
[9] = system: SR
[10] = system: SF-295
[11] = system: SK-MEL-2
[12] = system: HCT-116
[13] = system: TK-10
[14] = system: KM-20L2
[15] = system: OVCAR-3
[16] = system: MDA-MB-231
[17] = system: PC-3
[18] = system: BT-549
[19] = system: NCI/ADR-RES
[20] = system: T47D

Row | Structure (SMILES) | GI50 [1] | GI50 [2] | GI50 [3] | GI50 [4] | GI50 [5] | GI50 [6] | GI50 [7] | GI50 [8] | GI50 [9] | GI50 [10] | GI50 [11] | GI50 [12] | GI50 [13] | GI50 [14] | GI50 [15] | GI50 [16] | GI50 [17] | GI50 [18] | GI50 [19] | GI50 [20]
1 | O=C(Nc1cc(Cl)c(Cl)cc1Cl)C(=O)C1C(=O)NC(=S)NC1=O | > 100 µM (inactive) | > 100 µM (inactive) | > 100 µM (inactive) | > 100 µM (inactive) | > 100 µM (inactive) | > 100 µM (inactive) | > 100 µM (inactive) | > 100 µM (inactive) | > 100 µM (inactive) | > 100 µM (inactive) | > 100 µM (inactive) | > 100 µM (inactive) | > 100 µM (inactive) | > 100 µM (inactive) |  |  |  |  |  | 
2 | CSC(=S)NNC(=O)c1ccncc1 | 18.2 µM (inactive) | 40.7 µM (inactive) | 18.9 µM (inactive) | 11.3 µM (inactive) | 16.5 µM (inactive) | 21.1 µM (inactive) | 16.2 µM (inactive) | 16.1 µM (inactive) | 14.6 µM (inactive) | 22.6 µM (inactive) | 17.4 µM (inactive) | 21 µM (inactive) | 26.7 µM (inactive) | 32.7 µM (inactive) | 21.4 µM (inactive) |  |  |  |  | 
3 | O=[N+]([O-])c1cc(C(F)(F)F)cc([N+](=O)[O-])c1CCl | 1.57 µM (inactive) | 2.23 µM (inactive) | 0.0993 µM (active) | 0.429 µM (active) | 0.336 µM (active) | 3.15 µM (inactive) | 3.14 µM (inactive) | 1.73 µM (inactive) | 0.388 µM (active) | 5.78 µM (inactive) |  | 0.897 µM (active) | 8.53 µM (inactive) | 3.98 µM (inactive) | 5.24 µM (inactive) |  |  |  |  | 
4 | C#CCNC(=O)NCCCCC(NC(=O)OCc1ccccc1)C(=O)OCc1ccccc1 (stereo unspecified) | > 100 µM (inactive) | 29.8 µM (inactive) | 18.5 µM (inactive) | 72.8 µM (inactive) | 63.5 µM (inactive) | > 59.4 µM (inactive) | > 58.1 µM (inactive) | > 100 µM (inactive) | 45 µM (inactive) | > 100 µM (inactive) | > 96.2 µM (inactive) | > 68.2 µM (inactive) | > 100 µM (inactive) | > 100 µM (inactive) | 59.7 µM (inactive) |  |  |  |  | 
5 | O=C(CC(C(=O)c1ccsc1)c1cccs1)c1cccs1 (stereo unspecified) | > 100 µM (inactive) |  | 43.1 µM (inactive) | > 100 µM (inactive) | 75.7 µM (inactive) |  | > 100 µM (inactive) | > 100 µM (inactive) | 29.6 µM (inactive) | 37.5 µM (inactive) | > 100 µM (inactive) | 43.4 µM (inactive) | > 100 µM (inactive) | > 100 µM (inactive) | 38.7 µM (inactive) |  |  |  |  | 
6 | COc1cccc(NC(=O)C(=O)C2C=CCS2(=O)=O)c1 (stereo unspecified) | > 100 µM (inactive) | > 100 µM (inactive) | > 100 µM (inactive) | > 100 µM (inactive) | > 100 µM (inactive) | > 100 µM (inactive) | > 100 µM (inactive) | > 100 µM (inactive) | > 100 µM (inactive) | > 100 µM (inactive) | > 100 µM (inactive) | > 100 µM (inactive) | > 100 µM (inactive) | > 100 µM (inactive) | > 100 µM (inactive) |  |  |  |  | 
7 | NC1=NC(=O)C(CC(=O)Nc2ccc(Cl)cc2Cl)S1 (stereo unspecified) |  | > 100 µM (inactive) | 5.13 µM (inactive) | > 100 µM (inactive) | > 100 µM (inactive) | > 100 µM (inactive) | > 100 µM (inactive) |  |  | > 100 µM (inactive) | > 100 µM (inactive) |  | > 100 µM (inactive) | > 100 µM (inactive) | > 100 µM (inactive) |  |  |  |  | 
8 | CCOC(=O)C1C=C2O[C@@H]3OC4(CCCCC4)O[C@@H]3C2C2C(=O)CCC(=O)[C@@]12C(=O)OC (stereo partly specified) | > 100 µM (inactive) | > 100 µM (inactive) | > 100 µM (inactive) | > 100 µM (inactive) | > 100 µM (inactive) | > 100 µM (inactive) | > 100 µM (inactive) |  |  | > 100 µM (inactive) | > 100 µM (inactive) | > 100 µM (inactive) |  | > 100 µM (inactive) | 82.4 µM (inactive) |  |  |  |  | 
9 | O=C1NC2(CCCCC2)C(=O)N1CCN(CCCl)CCCl [SPIROMUSTINE] | > 250 µM (inactive) | 199 µM (inactive) | 45.8 µM (inactive) | 102 µM (inactive) | 77.6 µM (inactive) | 41.8 µM (inactive) | > 25 µM (inactive) |  | 19.4 µM (inactive) |  | > 141 µM (inactive) | 190 µM (inactive) | > 25 µM (inactive) | > 194 µM (inactive) |  | > 25 µM (inactive) | > 25 µM (inactive) | > 25 µM (inactive) | 136 µM (inactive) | 23.9 µM (inactive)
